Reference: PMC5496853, “Dual activation of neuronal G protein-gated inwardly rectifying potassium (GIRK) channels by cholesterol and alcohol” (Scientific Reports, 2017)

How the values were obtained:
GIRK2 [1] = biological target: T1, GIRK2 (Mus musculus, UniProt P48542); assay: fluorescence (ACMA) K+ flux assay, purified channel reconstituted in liposomes with brain PIP2; type: biochemical
T1 construct: gene Kcnj6; amino acids 52-380
T1 sequence (P48542 52-380): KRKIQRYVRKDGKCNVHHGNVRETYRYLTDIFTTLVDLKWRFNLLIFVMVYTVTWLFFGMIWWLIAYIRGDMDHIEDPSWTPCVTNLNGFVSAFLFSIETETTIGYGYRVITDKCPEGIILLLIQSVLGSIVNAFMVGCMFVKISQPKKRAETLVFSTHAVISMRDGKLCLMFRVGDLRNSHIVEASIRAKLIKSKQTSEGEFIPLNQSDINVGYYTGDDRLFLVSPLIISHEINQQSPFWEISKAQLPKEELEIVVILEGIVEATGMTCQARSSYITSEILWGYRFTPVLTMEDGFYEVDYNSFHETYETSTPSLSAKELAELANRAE

GIRK2 [2] = biological target: T1, GIRK2; assay: fluorescence (ACMA) K+ flux assay, purified channel reconstituted in liposomes; type: biochemical

SMILES	fluorescence (ACMA) K+ flux assay, purified channel reconstituted in liposomes w (GIRK2 [1])	EC50 (GIRK2 [2])
CCO [ethanol]	> 20 mM	–
CCCCCCCC(=O)OC[C@H](COP(=O)(O)O[C@@H]1[C@H](O)[C@H](O)[C@@H](OP(=O)(O)O)[C@H](OP(=O)(O)O)[C@H]1O)OC(=O)CCCCCCC [diC8-PIP2]	–	25.1 ± 3.3 µM
